# Measured values: patent US20190053489A1, “ANTIMICROBIAL COMPOSITION” (NATIONAL UNIVERSITY CORPORATION TOKYO MEDICAL AND DENTAL …, priority 2016, published 2019)
# Tests used:
# [1] = tested on: Mycobacterium avium Chester JCM15429; assay: Proliferation suppression against pulmonary MAC in a diluted medium (OD600); format: cell-based
# Experimental: This test employed Mycobacterium avium Chester JCM15429, and this microbe strain was cultured in a Middlebrook 7H9 medium at 37° C. for 2 weeks. The cultured microbial solution was collected by centrifugation (3000 rpm, 10 minutes), suspended with sterilized water, and then diluted with sterilized water so that the optical density would satisfy OD600 =1.0. The resultant was diluted 2000 times (corresponding to 10^6 CFU/ml) to prepare a reaction microbial solution.
# Each of the Middlebrook 7H9 test medium samples was added with 100 μl of reaction microbial solution and was statically cultured under the condition of 37° C. Here, the Middlebrook 7H9 test medium samples were prepared using 10 ml of 1/2.5 Middlebrook 7H9 medium added with
# (1) 10 ml of sterilized water, (2) 10 ml of the lysozyme-chitosan complex with a concentration of 0.002% (the concentration after addition was […]), (3) 10 ml of the lysozyme-chitosan complex with a concentration of 0.02% (the concentration after addition was 0.01%), (4) 10 ml of the lysozyme-chitosan complex with a concentration of 0.2% (the concentration after addition was 0.1%), (5) 10 ml of lysozyme alone with a concentration of 0.1% (the concentration after addition was 0.05%), (6) 10 ml of chitosan alone with a concentration of 0.1% (the concentration after addition was 0.05%), and (7) 10 ml of the mixture of lysozyme and chitosan with a concentration of 0.1% (the concentration of each after addition was 0.05%).
# After that, 3 ml was extracted at time intervals (0, 5, 7, and 12 days), and the optical density was measured at an absorption wavelength of 600 nm. In addition, 100 μl was extracted when necessary and seeded on the Middlebrook 7H10 agar medium, and the number of colonies produced was observed.
# [2] = tested on: Micrococcus luteus bacteria; assay: Heat resistance evaluation by bacteriolytic test; format: physicochemical; settings: 80° C. for 2 hours; ΔOD at 10 minutes with vs without heating; complex 5%, lysozyme 2.5% aqueous solution; FIG. 6(D)
# Experimental: This test is a bacteriolytic test using Micrococcus luteus bacteria being lysozyme-sensitive bacteria. Note that the bacteriolytic activity is an activity specific to lysozyme. Lysozyme is a protein relatively stable against heat. However, it is known that this activity generally decreases considerably for lysozyme heated at 80° C. for 30 minutes.
# This test employed an aqueous solution of the lysozyme-chitosan complex with a concentration of 5%, an aqueous solution of lysozyme with a concentration of 2.5%, and an aqueous solution of the mixture of lysozyme and chitosan with a concentration of […]. In addition, Micrococcus luteus bacteria manufactured by Wako Pure Chemical Industries, Ltd. were used as the use bacteria.
# First, 1 g of Micrococcus luteus bacteria was weighed on the day before the test, added to 100 ml of physiological saline, and stirred overnight at 4° C. […]
# In an optical density meter, 2800 μl of the test microbial solution was set to record OD (0-1) immediately before the addition of the sample. […] Since OD increased here, the highest value OD (0-2) was recorded.
# Timer measurement was started after the addition of the sample to record OD at the time of 2, 4, 6, 8, and 10 minutes passed. Each test was carried out twice, and the average was calculated.
# With OD for (0-2) being OD at the time of the start, Δoptical density (AOD) at each point was calculated. […]
# MRSA IID 1677 = assay: MRSA-resistant microbe acquisition protocol (microdilution method); format: cell-based, Methicillin-Resistant Staphylococcus Aureus (MRSA); settings: subculture 25 generations; FIG. 12
# Experimental: This test employed MRSA IID 1677, and a resistant microbe acquisition protocol was carried out by use of the microdilution method proposed by Japanese Society of Chemotherapy.
# MRSA = assay: Observation of morphological change in MRSA by electron microscope; format: cell-based, Methicillin-Resistant Staphylococcus Aureus (MRSA)
# Experimental: First, the morphological change in MRSA was observed by using a scanning electron microscope. This observation with a scanning electron microscope was carried out as follows: osmium coating (4 nm) was performed as the conductive treatment, and a low-acceleration ultra-high resolution scanning electron microscope (SU 9000 manufactured by Hitachi High-Technologies Corporation (accelerating voltage: 1 kV)) was used. In addition, the samples were MRSA added with physiological saline and MRSA added with a lysozyme-chitosan complex with a concentration of 0.2% by mass.
# Next, the morphological change in MRSA was observed by using a transmission electron microscope. This observation with a transmission electron microscope was carried out as follows: the sample was sliced in 50 nm with a diamond knife as the pretreatment and was stained with uranium acetate and lead citrate, and a transmission electron microscope (JEM-1400 manufactured by JEOL Ltd.) was used. In addition, the samples were MRSA added with physiological saline and MRSA added with a lysozyme-chitosan complex with a concentration of 0.2% by mass.
# Observation was carried out with a scanning electron microscope for the morphological changes in MRSA and pseudomonas aeruginosa treated with the lysozyme-chitosan complex, lysozyme alone, chitosan alone, and the mixture of lysozyme and chitosan (treatment time: 2 hours). This observation with a scanning electron microscope was carried out in the same manner as Example 8 described above: osmium coating (4 nm) was performed as the conductive treatment, and a low-acceleration ultra-high resolution scanning electron microscope (SU 9000 manufactured by Hitachi High-Technologies Corporation (accelerating voltage: 1 kV)) was used. In addition, the samples were MRSA or pseudomonas aeruginosa added with physiological saline, a lysozyme-chitosan complex with a concentration of 0.1% by mass, lysozyme of 0.05% by mass, chitosan of 0.05% by mass, and a mixture of lysozyme and chitosan, each with 0.05% by mass.
substance,measurement,setting,value
lysozyme-chitosan complex: complex of lysozyme and water-soluble chitosan (molecular weight 14000 Da) bound to each other through the Maillard reaction,"proliferation suppression effect against pulmonary MAC over 7 days, medium with phosphate buffer","[1]; Middlebrook 7H9 test medium further added with 10 mM phosphate buffer (pH 7.0), FIG. 5",marked proliferation suppression effect
same,"proliferation suppression effect against pulmonary MAC, classified by concentration","[1]; diluted Middlebrook 7H9 medium, complex 0.0010, 0.01%, 0.1% after addition, FIG. 3",increased as the concentration of the lysozyme-chitosan complex increased
same,proliferation suppression effect against pulmonary MAC over 7 days,"[1]; diluted Middlebrook 7H9 medium, complex 0.1% vs lysozyme, chitosan, mixture 0.05% each, FIG. 4",marked proliferation suppression effect
same,residual activity (bacteriolytic) after heating treatment,[2],91.9%
same,change of MIC (minimum inhibitory concentration) on subculture,MRSA IID 1677,hardly changed
same,"morphological change in MRSA, scanning electron microscope, treatment time 2 hours","MRSA; complex 0.1% by mass, lysozyme 0.05%, chitosan 0.05%, mixture each 0.05%, FIG. 16",the form of MRSA has changed
same,"morphological change in MRSA, scanning electron microscope","MRSA; complex 0.2% by mass, FIG. 13",fibrous adhesions have appeared on the outer surface of MRSA
same,"morphological change in MRSA, transmission electron microscope","MRSA; complex 0.2% by mass, FIG. 14",fibrous structures (DNA) inside MRSA have disappeared
